According to patent US10301272B2, “Carboxamide or sulfonamide substituted thiazoles and related derivatives as modulators for the orphan nuclear receptor ROR[γ]” (Phenex Pharmaceuticals AG, priority 2012, dated 2019):
Like-named read-outs stand apart in the source and are kept apart here.

Experiments:
RORγ = RORγ (Homo sapiens, UniProt P51449); assay: RORγ Gal4 Reporter Gene Assay; assay type: cell-based; details: for IC50: 293T cells
Procedure, shortened: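 Cells at 5×10^5/well were transfected with RORγ fragments fused to the GAL4 DNA-binding domain (CMV promoter), a 5×GAL4-site firefly luciferase reporter and CMV-Renilla luciferase for normalization. About 4 h later serum-free MEM and compound were added (vehicle ≤0.1%). Cultures at 37 °C, 5% CO2; at least triplicates.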

[1] = biological target: RORγ ligand binding domain (LBD) (Homo sapiens (Human), UniProt P51449); assay: TR-FRET Activity Assay (ligand sensing assay, LANCE); details: for pIC50 (FRET): TR-FRET, interaction of RORγ-LBD with coactivator peptide
RORγ ligand binding domain (LBD), sequence (P51449 269-508): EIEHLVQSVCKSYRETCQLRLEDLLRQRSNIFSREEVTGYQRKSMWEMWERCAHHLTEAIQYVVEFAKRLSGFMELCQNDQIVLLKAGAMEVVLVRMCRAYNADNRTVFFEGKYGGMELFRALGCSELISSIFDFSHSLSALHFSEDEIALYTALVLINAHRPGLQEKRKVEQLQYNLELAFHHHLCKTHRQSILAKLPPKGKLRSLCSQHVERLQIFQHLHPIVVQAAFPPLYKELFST
Source text: The ligand-binding domain (LBD) of RORγ was expressed as fusion protein with GST in BL-21 (BL3) cells using the vector pDEST15. Cells were lysed by lysozyme-treatment and sonication, and the fusion proteins purified over glutathione sepharose (Pharmacia) according to the manufacturers instructions. For screening of compounds for their influence on the RORγ-peptide interaction, the LANCE technology (Perkin Elmer) was applied. This method relies on the binding dependent energy transfer from a donor to an acceptor fluorophor attached to the binding partner of interest. For ease of handling and reduction of background from compound fluorescence LANCE technology makes use of generic fluorophore labels and time resolved detection assays were done in a final volume of 25 μL in a 384 well plate, in a Tris-based buffer system (20 mM Tris-HCl pH 6.8; 60 mM KCl, 1 mM DTT; 5 mM MgCl2; 35 ng/μL BSA), containing 20-60 ng/well recombinantly expressed RORγ-LBD fused to GST, 200-600 nM N-terminally biotinylated peptide, 200 ng/well Streptavidin-xlAPC conjugate (Prozyme) and 6-10 ng/well Eu W1024-antiGST (Perkin Elmer). DMSO content of the samples was kept at 1%.
After generation of the Tris-based buffer system, the potentially RORγ modulating ligands were diluted. […] The LANCE signal was detected by a Perkin Elmer EnVision™ Multilabel Counter. […] Ligands that promote the complex formation induce a concentration-dependent increase in time-resolved fluorescent signal.
Y is the response. Y starts at Bottom and goes to Top with a sigmoidal shape.
This is identical to the “four parameter logistic equation”. The IC50 values are calculated using this equation.

[2] = firefly (FF) luciferase, read-out: pIC50 (FF) (converted)
[3] = renilla normalised (RENnorm) luciferase, read-out: pIC50 (REN) (converted)

RORγ, sequence (P51449 whole entry, looked up, the tested form may be a part): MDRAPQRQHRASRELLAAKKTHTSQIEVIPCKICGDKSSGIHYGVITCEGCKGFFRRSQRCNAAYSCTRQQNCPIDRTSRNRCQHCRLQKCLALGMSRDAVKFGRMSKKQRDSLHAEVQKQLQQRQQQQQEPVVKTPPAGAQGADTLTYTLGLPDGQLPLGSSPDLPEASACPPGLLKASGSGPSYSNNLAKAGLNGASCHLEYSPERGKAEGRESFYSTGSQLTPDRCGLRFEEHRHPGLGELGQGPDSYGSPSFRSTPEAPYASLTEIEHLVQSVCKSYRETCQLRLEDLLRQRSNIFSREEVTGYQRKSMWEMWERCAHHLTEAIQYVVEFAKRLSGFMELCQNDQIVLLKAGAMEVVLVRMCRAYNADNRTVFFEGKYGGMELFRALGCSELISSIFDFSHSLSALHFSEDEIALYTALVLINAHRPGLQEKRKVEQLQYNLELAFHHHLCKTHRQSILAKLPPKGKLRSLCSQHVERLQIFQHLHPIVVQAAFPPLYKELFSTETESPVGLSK

Row | SMILES | pIC50 (FF) (RORγ) | pIC50 (REN) (RORγ) | pIC50 (FRET) [1] | IC50 (RORγ; [2]) | IC50 (RORγ; [3]) | IC50 [1]
1 | CCCc1nc(C(=O)NC2CCS(=O)(=O)CC2)sc1-c1ccc(S(=O)(=O)NC(C)(C)C)c(Cl)c1Cl [300/5] | 7.0/7.4/7.5 | 7.0/7.4/7.5 | 7.0/7.4/7.5 |  |  | 
2 | CC(C)(O)CNC(=O)c1nc(CC2CCCCC2)c(-c2ccc(S(=O)(=O)NC3(C(N)=O)CC3)c3ccccc23)s1 [8/3] | 6.4/7.5/7.6 | 6.4/7.5/7.6 | 6.4/7.5/7.6 |  |  | 
3 | CC1(C)COCCN1Cc1ccc(-c2sc(C(=O)NC3CCS(=O)(=O)CC3)nc2CC2CCCCC2)c2ccccc12 [7/26] | 6.8/7.7/7.9 | 6.8/7.7/7.9 | 6.8/7.7/7.9 |  |  | 
4 | CC(C)(C)c1cc(-c2nc(C(N)=O)ncc2CC2CCCCC2)cc(C(C)(C)C)c1 [Example 206, 5-(Cyclohexylmethyl)-4-(3,5-di-tert-butylphenyl)pyrimidine-2-carboxamide] | 5.9/6.3/6.2 | 5.9/6.3/6.2 | 5.9/6.3/6.2 |  |  | 
5 | C[C@H](NS(=O)(=O)c1ccc(-c2sc(C(=O)NC3CCOCC3)nc2CC2CCCCC2)c2ccccc12)C(F)(F)F [6/12] |  |  |  | 2 nM | 2 nM | 126 nM
6 | CC(C)(C)NS(=O)(=O)c1ccc(-c2sc(C(=O)NC3C[S+]([O-])C3)nc2CC2CCCCC2)cc1C(C)(C)O (stereo not drawn) [15/2] | 6.6/7.3/7.3 | 6.6/7.3/7.3 | 6.6/7.3/7.3 |  |  | 
7 | CC(C)(C)NC(=O)c1ccc(-c2sc(C(=O)NC3CCS(=O)(=O)CC3)nc2CC2CCCCC2)c2ccccc12 [7/25] | 6.2/6.6/6.5 | 6.2/6.6/6.5 | 6.2/6.6/6.5 |  |  | 
8 | CC(C)(C)NS(=O)(=O)c1ccc(-c2sc(S(N)(=O)=O)nc2CC2CCCCC2)cc1C(F)(F)F [13/2] | 6.5/6.7/6.8 | 6.5/6.7/6.8 | 6.5/6.7/6.8 |  |  | 
9 | COCC(C)(C)NS(=O)(=O)c1ccc(-c2sc(C(=O)N3CC4(CCS(=O)(=O)CC4)C3)nc2CC2CCCCC2)c2ccccc12 [14/2] | 6.5/7.4/7.4 | 6.5/7.4/7.4 | 6.5/7.4/7.4 |  |  | 
10 | CC(C)(O)CNC(=O)c1nc(CC2CCCCC2)c(-c2ccc(S(N)(=O)=O)c(Cl)c2Cl)s1 [Example 17, 4-(Cyclohexylmethyl)-5-(2,3-dichloro-4-sulfamoylphenyl)-N-(2-hydroxy-2-methylpropyl)thiazole-2-carboxamide] |  |  | 5.0 | > 20000 nM | > 20000 nM | 
11 | CC(C)(C)NS(=O)(=O)c1ccc(-c2sc(C(=O)NC3CCOCC3)nc2CC2CCCCC2)cc1C(C)(C)O [6/22] | 6.8/7.7/7.7 | 6.8/7.7/7.7 | 6.8/7.7/7.7 |  |  | 
12 | CC1(c2cc(C(=O)NCC(F)(F)F)cc(-c3sc(C(=O)N[C@H]4C[C@H](C(=O)O)C4)nc3CC3CCCCC3)c2)CC1 [7/6] | 6.2/7.1/7.2 | 6.2/7.1/7.2 | 6.2/7.1/7.2 |  |  | 
13 | CC(C)(C)NS(=O)(=O)c1ccc(-c2sc(C(=O)N[C@H]3C[C@H](C(=O)O)C3)nc2CC2CCCCC2)cc1C(F)(F)F [9/2] | 6.9/8.0/8.0 | 6.9/8.0/8.0 | 6.9/8.0/8.0 |  |  | 
14 | CC(C)(O)CNC(=O)c1nc(CC2CCCCC2)c(-c2ncc(S(=O)(=O)NC(C)(C)C)c3ccccc23)s1 [19/6] | 6.4/7.7/7.7 | 6.4/7.7/7.7 | 6.4/7.7/7.7 |  |  | 
